In US10308681B2, “Pharmaceutical composition for the prevention and treatment of cardiovascular disease comprising the peptide having the ability to inhibit angiotensin-1 converting enzyme as an active ingredient” (University-Industry Cooperation Group of Kyung Hee …, priority 2012, dated 2019):

How the values were obtained:
[1] = tested on: spontaneously hypertensive rats (SHR); assay: in vivo blood pressure regulation by the repeated administration (systolic pressure); set-up: species or system rat; details: oral, daily for 4 weeks, hydrolysate 100 mg/kg, YA 50 μg/kg
Experimental: To investigate in vivo blood pressure regulation effect of the functional peptide separated from the oyster enzyme hydrolysate by the repeated administration, the peptide was administered to the hypertension animal model repeatedly, followed by the investigation of blood pressure.
(§1) Particularly, the same rats as described in Example <5-2> were purchased and raised under the same condition. […] Systolic pressure was measured by the same manner as described in Example <5-2> on week 0, week 1, week 2, week 3, and week 4. […] The blood sample was centrifuged at 3,000 rpm for 10 minutes, and as a result serum was obtained and stored at −80° C. The levels of blood ACE and angiotensin-II in the stored serum were measured by using a commercial ELISA kit (USCN Life Science, China) according to the manufacturer's protocol.

[2] = tested on: blood angiotensin-II; assay: level of blood angiotensin-II in serum by ELISA after repeated administration; assay type: in vivo, rat; details: SHR serum after 4 weeks of oral administration, compared with negative control
Experimental: as §1

[3] = tested on: spontaneously hypertensive rats (SHR); assay: in vivo blood pressure regulation by a single administration (systolic pressure); set-up: species or system rat
Experimental: To investigate in vivo blood pressure regulation effect of the functional peptide separated from the oyster enzyme hydrolysate by a single administration, the peptide was administered to the hypertension animal model once (single administration), followed by the investigation of blood pressure.
Particularly, male spontaneously hypertensive rats (SHR; Central Lab. Animal Inc.) at 11 weeks and Wistar rats (Central Lab. Animal Inc.) were purchased, which were raised in a laboratory animal room in which the temperature was regulated at 22±3° C., the humidity was controlled at 50±5%, and the light/dark cycle was set at 12 h/12 h. Feeds and drinking water were provided freely. After a week of adaptation, the animals were divided into the experimental and the control groups and used for the experiment according to the guide line of Association for Assessment and Accreditation of Laboratory Care International approved by Institutional Animal Care and Use Committee, Kyunghee University College of Pharmacy. […] Then the animals were fixed for 20 minutes in a rat temperature control unit in which the temperature was maintained at 42° C. at the time point of 0, 3, 6, 9, 12, and 24 h, to let the tail vessel fully expanded. Then, systolic pressure was measured to investigate the antihypertensive activity.

[4] = tested on: blood ACE; assay: level of blood ACE in serum by ELISA after repeated administration; assay type: in vivo, rat; details: SHR serum after 4 weeks of oral administration, compared with negative control
Experimental: as §1

[5] = tested on: mild hypertension patients; details: Shimizu 1994; cited from earlier work

Compound: C[C@H](NC(=O)[C@@H](N)Cc1ccc(O)cc1)C(=O)O [YA, tyrosine-alanine]
- blood pressure on repeated administration (in words) [1]: blood pressure did not increase for 2 weeks
- level of blood angiotensin-II (in words) [2]: significantly decreased
- blood pressure lowering effect after 6 hours from the administration ([3]; 50 μg/kg, 6 hours): 33.9%
- level of blood ACE (in words) [4]: significantly decreased

Compound: valine-tyrosine [Val-Tyr]
- activity of reducing blood pressure (in words) [5]: activity of reducing blood pressure

Compound: C[C@H](CS)C(=O)N1CCC[C@H]1C(=O)O [Captopril, reference compound]
- blood pressure lowering effect ([3]; by the negative control, Captopril 8 mg/kg, hydrolysate 100 mg/kg): 18˜19%
